Measurements from ChEMBL document CHEMBL1201862, “PubChem BioAssay data set” (2004).
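48-hour exposure; five concentrations; linearly interpolated endpoints. At the GI50, growth is halved.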 Active and inactive are the calls of the source. Rule as the data show it: active = GI50 up to about 1.1 µM and inactive = higher.

Tests used:
Assay in all cases: growth of human tumour cells (NCI), 48 h
ACHN = test system: ACHN
SW-620 = test system: SW-620
SK-OV-3 = test system: SK-OV-3
OVCAR-5 = test system: OVCAR-5
UACC-257 = test system: UACC-257
Malme-3M = test system: Malme-3M
CCRF-CEM = test system: CCRF-CEM
SF-539 = test system: SF-539
SR = test system: SR
HOP-92 = test system: HOP-92
A549 = test system: A549
SNB-75 = test system: SNB-75
UACC-62 = test system: UACC-62
LOX IMVI = test system: LOX IMVI
RXF 393 = test system: RXF 393
SF-268 = test system: SF-268

Row | Compound | GI50 (ACHN) | GI50 (SW-620) | GI50 (SK-OV-3) | GI50 (OVCAR-5) | GI50 (UACC-257) | GI50 (Malme-3M) | GI50 (CCRF-CEM) | GI50 (SF-539) | GI50 (SR) | GI50 (HOP-92) | GI50 (A549) | GI50 (SNB-75) | GI50 (UACC-62) | GI50 (LOX IMVI) | GI50 (RXF 393) | GI50 (SF-268)
1 | Cc1nc(N)sc1C(=O)/C=C\c1ccc2c(c1)OCO2 | > 100 µM (inactive) | > 100 µM (inactive) | > 100 µM (inactive) | > 100 µM (inactive) | > 100 µM (inactive) | > 100 µM (inactive) | > 100 µM (inactive) | > 100 µM (inactive) | > 100 µM (inactive) | > 100 µM (inactive) | > 100 µM (inactive) | > 100 µM (inactive) | > 100 µM (inactive) | > 100 µM (inactive) | > 100 µM (inactive) | > 100 µM (inactive)
2 | NC(CCCNc1cccc(O)c1)C(=O)O (stereo not drawn) | > 100 µM (inactive) | > 100 µM (inactive) | > 100 µM (inactive) | > 100 µM (inactive) | > 100 µM (inactive) | > 100 µM (inactive) | > 100 µM (inactive) |  | > 100 µM (inactive) | > 100 µM (inactive) | > 100 µM (inactive) | > 100 µM (inactive) | > 100 µM (inactive) | > 100 µM (inactive) | > 100 µM (inactive) | > 100 µM (inactive)
3 | O=C1c2ccccc2C2CCC1c1ccccc12 (stereo not drawn) | 25.6 µM (inactive) | 39.2 µM (inactive) | 41.5 µM (inactive) | > 100 µM (inactive) | 25.3 µM (inactive) | 18.3 µM (inactive) | 23.9 µM (inactive) | 64 µM (inactive) | 20.5 µM (inactive) | 20.3 µM (inactive) | 25.2 µM (inactive) | 24.5 µM (inactive) | 34.6 µM (inactive) | 36.3 µM (inactive) | 24.4 µM (inactive) | 31.1 µM (inactive)
4 | CC(=O)OC(CCC1(C)OC1COc1ccc(CCNC(=O)c2ccccc2)cc1)C(C)(C)OC(C)=O (stereo not drawn) | 5 µM (inactive) | > 100 µM (inactive) | > 100 µM (inactive) | > 100 µM (inactive) | 2.13 µM (inactive) | 15.3 µM (inactive) | 7.18 µM (inactive) | > 100 µM (inactive) | 0.493 µM (active) | 74.6 µM (inactive) | 13.1 µM (inactive) | 32.6 µM (inactive) | 14.3 µM (inactive) | 2.18 µM (inactive) | 16.2 µM (inactive) | 74.8 µM (inactive)
5 | Cc1ccc(/C=C/C(=O)CCN(C)C)cc1 | 18.5 µM (inactive) | 16.6 µM (inactive) | 45 µM (inactive) | 33.8 µM (inactive) | 14.7 µM (inactive) | 20.7 µM (inactive) | 24.7 µM (inactive) | 16.9 µM (inactive) | 21.4 µM (inactive) | 19.5 µM (inactive) | 20.7 µM (inactive) | 20.1 µM (inactive) | 14.6 µM (inactive) | 16.3 µM (inactive) | 23.1 µM (inactive) | 24.9 µM (inactive)
6 | O=C1C(=Cc2ccc([N+](=O)[O-])o2)C(=O)N(CCc2ccccc2)S(=O)(=O)N1CCc1ccccc1 | 17.1 µM (inactive) | 19.5 µM (inactive) | > 100 µM (inactive) | > 100 µM (inactive) | 63 µM (inactive) | 17.1 µM (inactive) | 27.7 µM (inactive) | 38.1 µM (inactive) | 14.3 µM (inactive) | 19.3 µM (inactive) | > 100 µM (inactive) | 37.9 µM (inactive) | 16.9 µM (inactive) | 18.7 µM (inactive) | 19.5 µM (inactive) | 21.8 µM (inactive)
7 | CC(C)(c1ccccc1)c1ccc(OC#N)cc1 | 68.4 µM (inactive) | 99.3 µM (inactive) | 98.6 µM (inactive) | > 100 µM (inactive) | > 100 µM (inactive) | > 100 µM (inactive) | 40.6 µM (inactive) | 38.1 µM (inactive) | 19.2 µM (inactive) | 37.3 µM (inactive) | 73.5 µM (inactive) | 15.2 µM (inactive) | > 95.1 µM (inactive) | > 41 µM (inactive) | 46.1 µM (inactive) | 42 µM (inactive)
8 | C=C[C@@]1(O)CCCC2=C(C(=O)OCC)CC[C@]21C | > 100 µM (inactive) | 54.7 µM (inactive) | > 100 µM (inactive) | > 100 µM (inactive) | > 100 µM (inactive) | > 100 µM (inactive) | 44.7 µM (inactive) | > 100 µM (inactive) | 54.1 µM (inactive) | > 100 µM (inactive) | > 100 µM (inactive) |  |  |  | > 100 µM (inactive) | > 100 µM (inactive)
9 | CC(C)Cc1cc(CCC(=O)Nc2ccccc2[N+](=O)[O-])nc(NC#N)n1 | > 100 µM (inactive) | > 100 µM (inactive) | > 100 µM (inactive) | > 100 µM (inactive) | > 100 µM (inactive) | > 100 µM (inactive) | > 100 µM (inactive) | > 100 µM (inactive) | > 100 µM (inactive) | > 100 µM (inactive) | > 100 µM (inactive) | > 100 µM (inactive) | > 100 µM (inactive) | > 100 µM (inactive) | > 100 µM (inactive) | > 100 µM (inactive)
10 | C[C@]1(CO)CCC[C@@]2(C)C1CC[C@H]1CC3C[C@]12CC[C@]3(C)O (stereo partly drawn) | 74.6 µM (inactive) | > 100 µM (inactive) | > 100 µM (inactive) | > 100 µM (inactive) | 54.2 µM (inactive) | > 100 µM (inactive) | 0.213 µM (active) | 57.7 µM (inactive) | 83.2 µM (inactive) | > 100 µM (inactive) | 70.5 µM (inactive) | 30.8 µM (inactive) | > 100 µM (inactive) | 90.6 µM (inactive) | 46.7 µM (inactive) | > 100 µM (inactive)
11 | COc1cc2c[n+](C)c3c4cc(OC)c(OC)cc4c(OCCCCCCCCOc4cc5c6cc(OC)c(OC)cc6c[n+](C)c5c5cc(OC)c(OC)cc45)cc3c2cc1OC | > 100 µM (inactive) | > 100 µM (inactive) | > 100 µM (inactive) | > 100 µM (inactive) | > 100 µM (inactive) | > 100 µM (inactive) | 24.8 µM (inactive) | 51.4 µM (inactive) | 4.28 µM (inactive) | > 100 µM (inactive) | > 100 µM (inactive) | 58.6 µM (inactive) | > 100 µM (inactive) | > 100 µM (inactive) | > 100 µM (inactive) | > 100 µM (inactive)
12 | O=C1c2ccccc2C(=O)c2c1cc(S(=O)(=O)O)c(O)c2O [Alizarin Red S] | > 100 µM (inactive) | > 100 µM (inactive) | > 100 µM (inactive) | > 100 µM (inactive) | > 100 µM (inactive) |  | > 100 µM (inactive) | > 100 µM (inactive) | > 100 µM (inactive) | 90.8 µM (inactive) | > 100 µM (inactive) | > 100 µM (inactive) | > 100 µM (inactive) | > 100 µM (inactive) | > 100 µM (inactive) | > 100 µM (inactive)
13 | CN1C(=O)C(=O)c2cc3c(c4c2c1cc1ccccc14)OCO3 [CEPHARADIONE A] | 18.8 µM (inactive) | 35.4 µM (inactive) | 50.4 µM (inactive) | 48.8 µM (inactive) | 51.5 µM (inactive) | 38.8 µM (inactive) | 8.95 µM (inactive) | 45.6 µM (inactive) | 7.5 µM (inactive) | > 100 µM (inactive) | 33.7 µM (inactive) | 39.2 µM (inactive) | 16.9 µM (inactive) | 23 µM (inactive) | 25.6 µM (inactive) | 21.9 µM (inactive)
